Measurements as given in article PMC10460844, “Real‐Time Monitoring of Multitarget Antimicrobial Mechanisms of Peptoids Using Label‐Free Imaging with Optical Diffraction Tomography” (Advanced Science, 2023).
Converted amounts (≈) assume the structure as drawn. Structures can show the parent of a compound that is named as a salt. Where two headings read alike, the source gives them in different places. Square brackets hold non-standard residues; d marks the D form. Peptide text beside a SMILES is read from it. Nspe = C[C@H](NCC(=O)O)c1ccccc1; Nlys = NCCCCNCC(=O)O

Assays:
S. aureus ATCC 25923 = type: cell-based, Staphylococcus aureus
Procedure: (§1) The antibacterial activity of the peptoids was evaluated against gram‐positive (Staphylococcus aureus, ATCC 25 923) and gram‐negative (Escherichia coli, ATCC 25 922) bacteria. […] The MIC of each peptoid was determined using a broth dilution assay. For each assay, the primary culture of either S. aureus or E. coli was grown overnight in cation‐adjusted Mueller Hinton broth 2 (MHB2) media at 37 °C with shaking. A secondary culture was prepared the next day, grown for 3–4 h, and then diluted in MHB2 media with a final concentration of 0.001% acetic acid and 0.02% bovine serum albumin to obtain a calculated optical density (OD) of 0.001. This corresponded to ≈2–5 × 10^5 colony‐forming units (CFU mL^−1) of bacteria. Using 96‐well polypropylene plates (Eppendorf, Hamburg, Germany), 100 µL of 2–5 × 10^5 CFU mL^−1 bacteria were added in triplicate for each peptoid. Each peptoid was assayed at six different concentrations in two‐fold serial dilutions. The maximum peptoid concentration was 25 µM. […] The MIC value determination was performed in triplicate. The MIC was defined as the lowest peptoid concentration that prevented turbidity during visual inspection.

E. coli ATCC 25922 [1] = type: cell-based, Escherichia coli; conditions: mean of triplicate
Procedure: as §1

rat erythrocytes = experiment: Hemolysis assay; type: cell-based
Outline: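 Washed Sprague-Dawley rat erythrocytes (10% suspension in PBS pH 7.4) mixed with peptoids (0–100 µM), 60 min at 37 °C; supernatant A540 expressed as % of 1% Triton X-100 lysis. HC10/HC50 are concentrations giving 10%/50% hemolysis; Hmax is hemolysis at 100 µM.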

[2] = test system: MRC-5 human lung fibroblast cells; type: cell-based; conditions: Table S3, counter-ion exchange series; MTS assay, 24 h
Procedure: 4. Cell culture and cytotoxicity test using MTS assay
(Seoul, South Korea), human keratinocytes (HaCaT) were provided by the Skin Research Institute R&D Center of Amore Pacific Company (Yongin, South Korea). All cells were grown in Dulbecco's modified Eagle’s medium (DMEM) supplemented with 10% fetal bovine serum at 37 °C in an atmosphere containing 5% CO2. The 3-(4,5-dimethylthiazol-2- […]
assays were used to determine the effects of peptoids on cell growth.[4] Aliquots (100 µL) of media containing 1.3×10^4 MRC-5 cells/mL or 3×10^4 HaCaT cells/mL were distributed into each well of a 96-well plate (Eppendorf, Hamburg, Germany). The cells were allowed to attach and were grown in a humidified atmosphere containing 5% CO2 at 37 °C for 24 h.
When the cell density reached approximately 70% confluency, the medium was replaced with serial dilutions of the peptoid stock in DMEM and incubated for an additional 24 h. At this point, 20 µL of the CellTiter 96 aqueous non-radioactive cell proliferation assay reagent (Promega, Madison, WI, USA), which contains the tetrazolium compound, was added to each well. Plates were incubated for 4 h at 37 °C to allow time for metabolism. The MTS-formazan products in viable cells were measured at 490 nm using a microplate reader, and the percentage of cell viability (%) was calculated by comparing readings to the values of untreated wells. Percentage values of cell viability were calculated as A/(A control)×100, where A is the absorbance of the test well and A control is the average absorbance of wells containing untreated cells. […]

E. faecalis KCTC 3511 = type: cell-based; conditions: KCTC 3511
E. faecium KCTC 13225 = type: cell-based; conditions: KCTC 13225
E. coli ATCC 25922 [3] = experiment: NPN uptake assay (outer membrane); type: cell-based; conditions: E. coli ATCC 25922, 5 mM HEPES pH 7.2, 10 µM NPN, fluorescence
Procedure: 14. In vitro biological assays […]
The ability of peptoids to increase the permeability of the outer membrane of Gram-negative bacteria was determined by measuring the incorporation of the NPN fluorescent dye into the outer membrane of E. coli ATCC 25922. Bacterial cells were suspended to a final concentration of OD600 = 0.05 in 5 mM HEPES buffer, pH 7.2, containing 5 mM KCN. Then […]
200 μL NPN dye was added to wells of a 96 well plate to produce a final concentration of 10 μM, and the background fluorescence was recorded (λex = 350 nm, λem = 420 nm). Aliquots of peptoids were added to the well, and fluorescence was recorded as a function of time until there was no further increase in fluorescence. Increases of the permeability of the outer membrane after the addition of peptoids was reflected by increased fluorescence values as a result of NPN incorporation into the membrane. […]

E. coli ML-35 cells = experiment: ONPG hydrolysis assay (inner membrane); type: cell-based; conditions: 1.5 mM ONPG, 10 mM sodium phosphate pH 7.4, absorbance 405 nm
Procedure: The permeability of the inner membrane was determined using E. coli ML-35 cells […]
The intact bacterial inner membrane is non-permeable to o-nitrophenyl-β-D-galactopyranoside (OPNG), a chromogenic substrate of the β-galactosidase.
Following damage to the inner membrane, OPNG enters the cells and is metabolized by β-galactosidase creating a chromogenic […]. E. coli cells were washed in 10 mM sodium phosphate (pH 7.4) containing 100 mM NaCl and resuspended in the same buffer at a final concentration of OD600 = 0.5 containing 1.5 mM ONPG. The hydrolysis of ONPG and generation of o-nitrophenol over time were monitored as absorbance change at 405 nm following the addition of peptoids. […]

[4] = Analytical reversed-phase HPLC elution (hydrophobicity); type: physicochemical; conditions: Table 1; analytical RP-HPLC, SunFire C18 […] 250 mm, water/ACN + 0.1% TFA, 5% B 2 min then linear to 100% B over 30 min, 1 mL/min, UV 220 nm; used as measure of hydrophobicity
Outline: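 Retention time (tR) reflects hydrophobicity, with detection at 220 nm. Elution used a 5–100% acetonitrile linear gradient over 30 min after a 2 min hold at 5%, then 5 min at 100%, with both phases containing 0.1% TFA. Column was an analytical C18 (4.6 × 250 mm, 5 μm) run at 1 mL/min.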

S. typhimurium SL 1344 = type: cell-based; conditions: SL 1344
[5] = Table S3, counter-ion exchange series, mean of triplicate
[6] = Table S3, counter-ion exchange series (TFA, HCl, AcOH salts)
[7] = Table S3, counter-ion exchange series, 10% hemolysis in rat erythrocytes, mean of triplicate
[8] = Table S3, counter-ion exchange series, 50% hemolysis in rat erythrocytes, mean of triplicate
[9] = Table S3, counter-ion exchange series, hemolysis at 100 µM
[10] = Table S2, broth dilution, MHB2, 37 °C 24 h, max 25 µM, mean of triplicate
[11] = Table S2, broth dilution, MHB2, 37 °C 24 h, max 25 µM

Row | Structure (SMILES) | MIC S. aureus ATCC25923 (S. aureus ATCC 25923; [5]) | MIC E. coli ATCC25922 (E. coli ATCC 25922 [1]; [6]) | HC10 (rat erythrocytes; [7]) | HC50 (rat erythrocytes; [8]) | Hmax (100 µM) (rat erythrocytes; [9]) | LC50 MRC-5 [2] | MIC E. faecalis KCTC 3511 (E. faecalis KCTC 3511) | MIC E. faecium KCTC 13225 (E. faecium KCTC 13225) | MIC S. aureus ATCC25923 (S. aureus ATCC 25923; ATCC 25923) | MIC S. aureus ATCC25923 (S. aureus ATCC 25923; [10]) | outer membrane disruption (NPN uptake) (E. coli ATCC 25922 [3]) | inner membrane disruption (ONPG hydrolysis) (E. coli ML-35 cells) | MIC E. coli ATCC25922 (E. coli ATCC 25922 [1]; [11]) | H max (100 µM) (rat erythrocytes) | Hmax (100 µM) (rat erythrocytes) | HC10 (rat erythrocytes; red cells of rat) | HC50 (rat erythrocytes; red cells of rat) | HPLC elution (%ACN) [4] | MIC S. typhimurium SL 1344 (S. typhimurium SL 1344) | other results
1 | C[C@@H](c1ccccc1)N(CC(N)=O)C(=O)CN(C(=O)CN(CCCCN)C(=O)CN(C(=O)CN(C(=O)CN(CCCCN)C(=O)CN(C(=O)CN(C(=O)CN(CCCCN)C(=O)CN(C(=O)CN(C(=O)CNCCCCN)[C@@H](C)c1ccccc1)[C@@H](C)c1ccccc1)[C@@H](C)c1ccccc1)[C@@H](C)c1ccccc1)[C@@H](C)c1ccccc1)[C@@H](C)c1ccccc1)[C@@H](C)c1ccccc1 [1-AcOH] (H-[Nlys][Nspe][Nspe][Nlys][Nspe][Nspe][Nlys][Nspe][Nspe][Nlys][Nspe][Nspe]-NH2) | 3.1 µM (≈ 5.64 µg/mL) | 12.5 µM | 25.0 µM | 78.6 µM | 58.2±1.7% | 8.6 µM | – | – | – | – | – | – | – | – | – | – | – | – | – | –
2 | C[C@@H](c1ccccc1)N(CC(N)=O)C(=O)CN(C(=O)CN(CCCCN)C(=O)CN(C(=O)CN(C(=O)CN(CCCCN)C(=O)CN(C(=O)CN(C(=O)CN(CCCCN)C(=O)CN(C(=O)CN(C(=O)CNCCCCN)[C@@H](C)c1ccccc1)[C@@H](C)c1ccccc1)[C@@H](C)c1ccccc1)[C@@H](C)c1ccccc1)[C@@H](C)c1ccccc1)[C@@H](C)c1ccccc1)[C@@H](C)c1ccccc1 [1-HCl] (H-[Nlys][Nspe][Nspe][Nlys][Nspe][Nspe][Nlys][Nspe][Nspe][Nlys][Nspe][Nspe]-NH2) | 1.6 µM | 6.3 µM | 27.6 µM | 83.3 µM | 61.5±0.9% | 11.8 µM | – | – | – | – | – | – | – | – | – | – | – | – | – | –
3 | C[C@@H](c1ccccc1)N(CC(N)=O)C(=O)CN(C(=O)CN(CCCCN)C(=O)CN(C(=O)CN(C(=O)CN(CCCCN)C(=O)CN(C(=O)CN(C(=O)CN(CCCCN)C(=O)CN(CCc1c[nH]c2ccccc12)C(=O)CN(C(=O)CNCCCCN)[C@@H](C)c1ccccc1)[C@@H](C)c1ccccc1)[C@@H](C)c1ccccc1)[C@@H](C)c1ccccc1)[C@@H](C)c1ccccc1)[C@@H](C)c1ccccc1 [peptoid 10] | – | 3.1 µM | – | – | – | – | 12.5 µM (≈ 23.2 µg/mL) | 12.5 µM (≈ 23.2 µg/mL) | 0.8 µM (≈ 1.49 µg/mL) | 1.6 µM (≈ 2.97 µg/mL) | strongly disrupted | strongly disrupted | 3.1 µM (≈ 5.76 µg/mL) | 108.1 ± 1.7% | 101.4±5.1% | 6.9 µM | 25.8 µM | 54.9 %ACN | 12.5 µM (≈ 23.2 µg/mL) | HC10 (rat erythrocytes; pH 7.4): 6.6 µM; HC50 (rat erythrocytes; pH 7.4): 17.0 µM
4 | C[C@@H](c1ccccc1)N(CC(N)=O)C(=O)CN(C(=O)CN(CCCCN)C(=O)CN(C(=O)CN(C(=O)CN(CCCCN)C(=O)CN(C(=O)CN(C(=O)CN(CCCCN)C(=O)CN(CCc1c[nH]c2ccccc12)C(=O)CN(CCc1c[nH]c2ccccc12)C(=O)CNCCCCN)[C@@H](C)c1ccccc1)[C@@H](C)c1ccccc1)[C@@H](C)c1ccccc1)[C@@H](C)c1ccccc1)[C@@H](C)c1ccccc1 [peptoid 14] | – | 3.1 µM | – | – | – | – | 1.6 µM (≈ 3.04 µg/mL) | <0.8 µM | 1.6 µM (≈ 3.04 µg/mL) | < 0.8 µM | strongly disrupted | strongly disrupted | 3.1 µM (≈ 5.88 µg/mL) | 90.0 ± 7.3% | 112.9±2.1% | 12.5 µM | 21.1 µM | 55.6 %ACN | 12.5 µM (≈ 23.7 µg/mL) | –
